Data as given in BindingDB's records for doi:10.1016/j.bioorg.2015.04.003 (Comsats Institute of Information Technology, 2015).

Molecular target: T1, Thymidine phosphorylase (Escherichia coli O157:H7, UniProt Q8XB35)
T1 sequence (Q8XB35 whole entry): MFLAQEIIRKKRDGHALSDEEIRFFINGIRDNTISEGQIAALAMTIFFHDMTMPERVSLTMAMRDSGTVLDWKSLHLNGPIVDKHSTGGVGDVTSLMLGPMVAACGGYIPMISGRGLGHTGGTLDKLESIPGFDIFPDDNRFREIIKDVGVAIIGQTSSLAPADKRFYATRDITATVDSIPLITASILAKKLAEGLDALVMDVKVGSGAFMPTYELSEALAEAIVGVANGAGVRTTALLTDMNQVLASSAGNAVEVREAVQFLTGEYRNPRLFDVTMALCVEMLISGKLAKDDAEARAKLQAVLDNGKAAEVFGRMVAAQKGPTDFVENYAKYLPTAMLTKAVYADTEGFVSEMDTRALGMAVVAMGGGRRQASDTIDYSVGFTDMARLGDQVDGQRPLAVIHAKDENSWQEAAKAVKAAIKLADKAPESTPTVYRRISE
Assay: Thymidine Phosphorylase Inhibition Assay
Details: pH 7.4
Procedure: Briefly, a total reaction mixture of 200 µl contained 145 µl of potassium phosphate buffer (pH 7.4), 30 µl of enzyme at concentration 0.05 and 0.002 U, respectively, were incubated with 5 µl of test materials for 10 min at 25 °C in microplate reader. After incubation, pre read at 290 nm was taken to deduce the absorbance of substrate molecules. Substrate (20 µl, 1.5 mM) was dissolved in potassium phosphate buffer and was immediately added to plate and continuously read after 10, 20, and 30 min in micro-plate reader. All assays were performed in triplicate

SMILES | IC50 [µM]
Oc1ccc(-c2nnc(S)o2)cc1 [5(4'-Hydroxyphenyl)-1,3,4-oxadiazole-2(3H)-thione (6)] | 38.2
Nc1ccccc1-c1n[nH]c(=S)o1 [5-(2'-Aminophenyl)-1,3,4-oxadiazole-2(3H)-thione (3)] | 74.3
Oc1ccccc1-c1nnc(S)o1 [5-(2'-Hydroxyphenyl)-2,3-dihydro-1,3,4-oxadiazole-2-thione (2)] | 68.4
COc1cc(-c2n[nH]c(=S)o2)cc(OC)c1OC [5-(3',4',5'-Trimethoxyphenyl)-1,3,4-oxadiazole-2(3H)-thione (8)] | 63.4
Sc1nnc(-c2cccc(Cl)c2)o1 [5-(3'-Chlorophenyl)-1,3,4-oxadiazole-2(3H)-thione (10)] | 258
Cc1cccc(-c2nnc(S)o2)c1 [5-(3'-Methylphenyl)-1,3,4-oxadiazole-2(3H)-thione (4)] | 91.8
S=c1[nH]nc(-c2ccc(Br)cc2)o1 [5-(4'-Bromophenyl)-1,3,4-oxadiazole-2(3H)-thione (12)] | 64
S=c1[nH]nc(-c2ccc(Cl)cc2)o1 [5-(4'-Chlorophenyl)-1,3,4-oxadiazole-2(3H)-thione (11)] | 64
COc1ccc(-c2n[nH]c(=S)o2)cc1 [5-(4'-Methoxyphenyl)-1,3,4-oxadiazole-2(3H)-thione (7)] | 72.4
